What was measured:
Type in all cases: in vivo
[1] = system: Kochia (Kochia scoparia); experiment: Test A preemergence; conditions: Bassia scoparia, pre-emergence, 240 h, preemergence, read-out: Plant response rating, Kochia; for pest or weed control at 125 g/ha: 125 g ai/ha, visual rating after approx. 10 d, 0 to 100 scale where 0 is no effect and 100 is complete control; for pest or weed control at 500 g/ha: 500 g ai/ha, 0 to 100 scale, 0 = no effect, 100 = complete control
How it was run: (§1)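 Visual injury scores from 0, no effect, to 100, complete control, were assigned versus untreated controls roughly 10 d after treatment in the greenhouse. Test chemicals, formulated with surfactant in a non-phytotoxic solvent, were applied to planted seeds as a preemergence soil spray or postemergence to one- to two-leaf plants 2 to 10 cm tall, in loam–sand soil.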

[2] = system: barnyardgrass (Echinochloa crus-galli); experiment: Test A preemergence; conditions: Echinochloa crus-galli, pre-emergence, 240 h, preemergence, read-out: Plant response rating, Barnyardgrass; for pest or weed control at 125 g/ha: 125 g ai/ha, visual rating after approx. 10 d, 0 to 100 scale where 0 is no effect and 100 is complete control; for pest or weed control at 500 g/ha: 500 g ai/ha, 0 to 100 scale, 0 = no effect, 100 = complete control
How it was run: as §1

[3] = system: giant foxtail (Setaria faberii); experiment: Test A preemergence; conditions: Setaria faberi, pre-emergence, 240 h, preemergence, read-out: Plant response rating, Foxtail, Giant; for pest or weed control at 125 g/ha: 125 g ai/ha, visual rating after approx. 10 d, 0 to 100 scale where 0 is no effect and 100 is complete control; for pest or weed control at 500 g/ha: 500 g ai/ha, 0 to 100 scale, 0 = no effect, 100 = complete control
How it was run: as §1

[4] = system: pigweed (Amaranthus retroflexus); experiment: Test A preemergence; conditions: Amaranthus retroflexus, pre-emergence, 240 h, preemergence, read-out: Plant response rating, Pigweed; for pest or weed control at 125 g/ha: 125 g ai/ha, visual rating after approx. 10 d, 0 to 100 scale where 0 is no effect and 100 is complete control; for pest or weed control at 500 g/ha: 500 g ai/ha, 0 to 100 scale, 0 = no effect, 100 = complete control
[5] = system: ragweed (common ragweed, Ambrosia elatior); experiment: Test A preemergence; conditions: Ambrosia artemisiifolia, pre-emergence, 240 h, preemergence, read-out: Plant response rating, Ragweed; for pest or weed control at 125 g/ha: 125 g ai/ha, visual rating after approx. 10 d, 0 to 100 scale where 0 is no effect and 100 is complete control; for pest or weed control at 500 g/ha: 500 g ai/ha, 0 to 100 scale, 0 = no effect, 100 = complete control
How it was run: as §1

[6] = system: ryegrass, Italian (Italian ryegrass, Lolium multiflorum); experiment: Test A preemergence; conditions: Lolium multiflorum, pre-emergence, 240 h, preemergence, read-out: Plant response rating, Ryegrass, Italian; for pest or weed control at 125 g/ha: 125 g ai/ha, visual rating after approx. 10 d, 0 to 100 scale where 0 is no effect and 100 is complete control; for pest or weed control at 500 g/ha: 500 g ai/ha, 0 to 100 scale, 0 = no effect, 100 = complete control
How it was run: as §1

[7] = system: Kochia (Kochia scoparia); experiment: Test A postemergence; conditions: Bassia scoparia, post-emergence, 240 h, 125 g ai/ha, postemergence; visual injury after approximately 10 d; 0 to 100 scale (0 no effect, 100 complete control); read-out: Plant response rating, Kochia
How it was run: as §1

[8] = system: barnyardgrass (Echinochloa crus-galli); experiment: Test A postemergence; conditions: Echinochloa crus-galli, post-emergence, 240 h, 125 g ai/ha, postemergence; visual injury after approximately 10 d; 0 to 100 scale (0 no effect, 100 complete control); read-out: Plant response rating, Barnyardgrass
How it was run: as §1

[9] = system: blackgrass (Alopecurus myosuroides); experiment: Test A postemergence; conditions: Alopecurus myosuroides, post-emergence, 240 h, 125 g ai/ha, postemergence; visual injury after approximately 10 d; 0 to 100 scale (0 no effect, 100 complete control); read-out: Plant response rating, Blackgrass
How it was run: as §1

[10] = system: giant foxtail (Setaria faberii); experiment: Test A postemergence; conditions: Setaria faberi, post-emergence, 240 h, 125 g ai/ha, postemergence; visual injury after approximately 10 d; 0 to 100 scale (0 no effect, 100 complete control); read-out: Plant response rating, Foxtail, Giant
How it was run: as §1

[11] = system: ragweed (common ragweed, Ambrosia elatior); experiment: Test A postemergence; conditions: Ambrosia artemisiifolia, post-emergence, 240 h, 125 g ai/ha, postemergence; visual injury after approximately 10 d; 0 to 100 scale (0 no effect, 100 complete control); read-out: Plant response rating, Ragweed
How it was run: as §1

[12] = system: barnyardgrass (Echinochloa crus-galli); experiment: Test B flooded paddy test; conditions: Echinochloa crus-galli, Flood, 250 g ai/ha; scale of 0 to 100 where 0 is no effect and 100 is complete control; read-out: Barnyardgrass plant response rating
How it was run: (§2)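 Visual ratings (0 none to 100 complete control) are relative to untreated plants, taken 13–15 d after treatment in a greenhouse. Test material went straight into floodwater standing 3 cm above the soil, kept constant, on plants at the 2-leaf stage.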

[13] = system: ducksalad (Heteranthera limosa); experiment: Test B flooded paddy test; conditions: Heteranthera limosa, Flood, 250 g ai/ha; scale of 0 to 100 where 0 is no effect and 100 is complete control; read-out: Ducksalad plant response rating
How it was run: as §2

[14] = system: rice (Oryra sativa); experiment: Test B flooded paddy test; conditions: Oryza sativa, Flood, 250 g ai/ha; scale of 0 to 100 where 0 is no effect and 100 is complete control; read-out: Rice plant response rating
How it was run: as §2

[15] = system: sedge, umbrella (small-flower umbrella sedge, Cyperus difformis); experiment: Test B flooded paddy test; conditions: Cyperus difformis, Flood, 250 g ai/ha; scale of 0 to 100 where 0 is no effect and 100 is complete control; read-out: Sedge, Umbrella plant response rating
How it was run: as §2

SMILES | pest or weed control at 125 g/ha [1] [%] | pest or weed control at 500 g/ha [1] [%] | pest or weed control at 125 g/ha [2] [%] | pest or weed control at 500 g/ha [2] [%] | pest or weed control at 125 g/ha [3] [%] | pest or weed control at 500 g/ha [3] [%] | pest or weed control at 125 g/ha [4] [%] | pest or weed control at 500 g/ha [4] [%] | pest or weed control at 125 g/ha [5] [%] | pest or weed control at 500 g/ha [5] [%] | pest or weed control at 125 g/ha [6] [%] | pest or weed control at 500 g/ha [6] [%] | pest or weed control at 125 g/ha [7] [%] | pest or weed control at 125 g/ha [8] [%] | pest or weed control at 125 g/ha [9] [%] | pest or weed control at 125 g/ha [10] [%] | pest or weed control at 125 g/ha [11] [%] | pest or weed control at 250 g/ha [12] [%] | pest or weed control at 250 g/ha [13] [%] | pest or weed control at 250 g/ha [14] [%] | other results
Cc1ccc([C@H]2CN(C)C(=O)[C@@H]2C(=O)Nc2cccc(F)c2C)cc1C [Compound 732] | 70 | 90 | 90 | 100 | 90 | 90 | 0 | 20 | 0 | 70 | 80 | 80 | 20 | 90 | 50 | 90 | 0 | 45 | 100 | 0 | pest or weed control at 250 g/ha [15]: 0%
CCc1cc(CC)cc([C@H]2CN(C)C(=O)[C@@H]2C(=O)Nc2ccccc2C(F)(F)F)c1 [Compound 737] | 40 | 50 | 70 | 80 | 90 | 90 | 0 | 0 | 0 | 0 | 40 | 70 | 0 | 40 | 30 | 70 | 0 | 0 | 0 | 0 | pest or weed control at 250 g/ha [15]: 0%
O=C1NC[C@H](c2cnc(C(F)(F)F)nc2)[C@H]1C(=O)Nc1ccccc1F [Compound 741] | 0 | 30 | 0 | 0 | 0 | 0 | 0 | 40 | 0 | 0 | 0 | 0 | 0 | 0 | 0 | 0 | 0 | 0 | 90 | 0 | pest or weed control at 250 g/ha [15]: 40%
O=C1NC[C@H](c2ccc(C(F)(F)F)cc2)[C@H]1C(=O)Nc1ccccc1C1CC1 [Compound 746] | 0 | 60 | 0 | 0 | 80 | 90 | 0 | 20 | 0 | 0 | 0 | 40 | 0 | 20 | 20 | 50 | 0 | 0 | 95 | 0 | pest or weed control at 250 g/ha [15]: 0%
CN1C[C@H](c2ccc(C(F)(F)F)cc2)[C@@H](C(=O)Nc2ccccc2C2CC2)C1=O [Compound 747] | 60 | 80 | 0 | 70 | 90 | 90 | 50 | 50 | 20 | 0 | 0 | 60 | 20 | 40 | 30 | 70 | 0 | 0 | 90 | 15 | pest or weed control at 250 g/ha [15]: 0%
O=C1NC[C@H](c2cccc(C(F)(F)F)c2)[C@H]1C(=O)Nc1ccccc1C1CC1 [Compound 748] | 0 | 0 | 0 | 30 | 40 | 90 | 0 | 0 | 0 | 0 | 0 | 0 | 0 | 40 | 0 | 0 | 0 | 0 | 75 | 25 | pest or weed control at 250 g/ha [15]: 0%

From patent publication US12077503B2, “Substituted cyclic amides and their use as herbicides” (FMC CORPORATION, priority 2015, dated 2024)
